Where a SMILES comes first, the peptide text is derived from it. The star is where a group is joined. Cbz = O=C(OCc1ccccc1)*; CH2F = FC*
Key:
[1] = tested on: normal specimens (BM, CB, MPB); experiment: Viability of normal specimens (BM, CB, MPB), Annexin V/7-AAD; assay type: cell-based, human; details: normal specimens
Method: (§1) The cells were isolated and processed as described. […] All drug treatments were performed in triplicate. […] Total viable cell numbers were determined using a flow cytometric apoptosis assay as described. Briefly, after 18 h of treatment, specimens were labeled with anti-CD34-PE (Becton Dickinson, San Jose, Calif.) for 20 minutes. […] The total number of events collected was 100,000. The percent viable cells was defined as AnnexinV^neg/7-AAD^neg cells on total (ungated) cells and on gates set for CD34^+ populations. • [1] Jordan, C. T., et al., The interleukin-3 receptor alpha chain is a unique marker for human acute myelogenous leukemia stem cells. Leukemia, 2000. 14(10): p. […] Lansdorp, P. M. and W. Dragowska, Long-term erythropoiesis from constant numbers of CD34+ cells in serum-free cultures initiated with highly purified progenitor cells from human bone marrow. […] Guzman, M. L., et al., Nuclear factor-kappaB is constitutively activated in primitive human acute myelogenous leukemia cells. […] 98(8): p.

primary AML specimens = experiment: Viability of primary AML specimens, Annexin V/7-AAD flow cytometry; assay type: cell-based, human; details: for Rapid kinetics: cell death kinetics; for Cytotoxic AML: primary AML specimens
Method: as §1

[2] = listed as 2-chloro-1-(4,5-dibromo-thiophen-2-yl-ethanone)
[3] = pre-treated 1 h prior to 20 μM TDZD-8, viability at 24 hours

| SMILES | Cytotoxic Normal [1] | Rapid kinetics (primary AML specimens) | Cytotoxic AML (primary AML specimens) | Cytotoxic Normal [1, 2] | Cytotoxic AML (primary AML specimens; [2]) | effect of pretreatment on cell death induced by TDZD-8 (primary AML specimens; [3]) | abrogation of TDZD-8 induced death by pan-caspase inhibitor (primary AML specimens; [3]) |
| --- | --- | --- | --- | --- | --- | --- | --- |
| O=C1Cc2c([nH]c3ccc(Br)cc23)-c2ncccc2N1 [1-Azakenpaullone] | No | No | No | – | – | – | – |
| O=c1sn(Cc2ccccc2)c(=S)n1Cc1ccccc1 [2,4-Dibenzyl-5-oxothiadiazolidine-3-thione] | No | No | No | – | – | – | – |
| O=C1CSC(=O)N1 [2,4-thiazolidinedione] | No | No | No | – | – | – | – |
| O=C(CCl)c1cc(Br)c(Br)s1 [2-Chloro-1-(4,5-dibromo-thiophen-2-yl)-ethanone] | Yes | No | Yes | toxic to normal cells | could induce AML cell death | – | – |
| O=C1NC(=O)C(=Cc2ccc3c(c2)OC(F)(F)O3)S1 [5-(2,2-Difluoro-benzo[1,3]dioxol-5-ylmethylene)-thiazolidine-2,4-dione] | – | No | – | – | – | – | – |
| Cc1cc(Nc2nc(-c3ccccc3)nc3ccccc23)n[nH]1 [(5-Methyl-1H-pyrazol-3-yl)-(2-phenylquinazolin-4-yl)amine] | No | No | No | – | – | – | – |
| CCOc1ccc(C=C2SC(=O)N(CCN)C2=O)cc1.Cl [-(2-Aminoethyl)-5-((4-ethoxyphenyl)methylene)-2,4-thiazolidinedione, HCl] | No | No | No | – | – | – | – |
| COc1ccc(CNC(=O)Nc2ncc([N+](=O)[O-])s2)cc1 [AR-A014418] | No | No | No | – | – | – | – |
| O=C1Nc2cc(Br)ccc2/C1=C1/Nc2ccccc2/C1=N\O [BIO] | No | – | No | – | – | – | – |
| O=C1NC(=O)C(Cc2ccc(OCCN3COc4ccccc4C3=O)cc2)S1 (stereo not drawn) [DRF 2519] | No | No | No | – | – | – | – |
| CC(=O)N[C@@H](CS)C(=O)O [NAC, N-acetyl-cysteine] | – | – | – | – | – | completely blocked the cell death response | – |
| Cn1cc(C2=C(c3ccc(Cl)cc3Cl)C(=O)NC2=O)c2ccccc21 [SB-216763] | No | No | No | – | – | – | – |
| Nc1cccc(-c2cc3c(Oc4cccc(O)c4)ncnc3[nH]2)c1 [TWS119] | No | No | No | – | – | – | – |
| Cc1c(C)c2c(c(C)c1O)CCC(C)(COc1ccc(CC3SC(=O)NC3=O)cc1)O2 (stereo not drawn) [Troglitazone] | Yes | – | Yes | – | – | – | – |
| CC(NC(=O)C(NC(=O)OCc1ccccc1)C(C)C)C(=O)NC(CC(=O)O)C(=O)CF (stereo not drawn) [Z-VAD] (Cbz-Val-Ala-Asp-CH2F; configuration not given here) | – | – | – | – | – | – | no abrogation of death was observed |
